Measurements reported in article PMC8966731 (2022).
Bridge positions count the residues as written; N and C are the ends. Square brackets hold non-standard residues; d marks the D form.

Test system: SARS-CoV-2 M^pro
Conditions: 37 °C, up to 1 h

cleaved bond: Gln3-Tyr4, minor, 1 h
Substance: AcyLQYAVLRHKRREC ({CH2CO}-[dY]LQYAVLRHKRREC-NH2; thioether N-14; SMILES CC(C)C[C@@H]1NC(=O)[C@H](C(C)C)NC(=O)[C@H](C)NC(=O)[C@H](Cc2ccc(O)cc2)NC(=O)[C@H](CCC(N)=O)NC(=O)[C@H](CC(C)C)NC(=O)[C@@H](Cc2ccc(O)cc2)NC(=O)CSC[C@@H](C(N)=O)NC(=O)[C@H](CCC(=O)O)NC(=O)[C@H](CCCNC(=N)N)NC(=O)[C@H](CCCNC(=N)N)NC(=O)[C@H](CCCCN)NC(=O)[C@H](Cc2c[nH]cn2)NC(=O)[C@H](CCCNC(=N)N)NC1=O)
